{"source": "the supplement of paper PMC10307832", "assay_in_all_cases": "relative viability (nuclei count vs DMSO), 5 days (fraction); higher = more cells survive", "key": {"[1]": {"tested_on": "NCI-H1355", "in_short": "(§1)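 Dosing by pin tool came one day after lung cancer cell lines were seeded in 1536-well plates, using either one drug or a fixed anchor-drug dose plus five library-drug doses (not always all listed) in √10 steps. After 5 days, nuclei were counted on 4× images. Relative viability is treated-well nuclei count divided by vehicle-well nuclei count, and values are medians of duplicate plates.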"}, "[2]": {"tested_on": "RERF-LC-KJ", "in_short": "as §1"}, "[3]": {"tested_on": "SW 1573", "in_short": "as §1"}, "[4]": {"tested_on": "HCC-15", "in_short": "as §1"}, "[5]": {"tested_on": "COR-L23", "in_short": "as §1"}, "[6]": {"tested_on": "LK-2", "in_short": "as §1"}, "[7]": {"tested_on": "NCI-H661", "in_short": "as §1"}, "[8]": {"tested_on": "HCC-827", "in_short": "as §1"}, "[9]": {"tested_on": "ABC-1", "in_short": "as §1"}, "[10]": {"tested_on": "SK-MES-1", "in_short": "as §1"}, "[11]": {"tested_on": "NCI-H2405", "in_short": "as §1"}, "[12]": {"tested_on": "NCI-H1651", "in_short": "as §1"}, "[13]": {"tested_on": "NCI-H520", "in_short": "as §1"}, "[14]": {"tested_on": "H3255", "in_short": "as §1"}, "[15]": {"tested_on": "PC-3 [JPC-3]", "in_short": "as §1"}, "[16]": {"tested_on": "NCI-H1650", "in_short": "as §1"}, "[17]": {"tested_on": "PC-14", "in_short": "as §1"}, "[18]": {"tested_on": "EKVX", "in_short": "as §1"}, "[19]": {"tested_on": "NCI-H1437", "in_short": "as §1"}, "[20]": {"tested_on": "NCI-H1734", "in_short": "as §1"}, "[21]": {"tested_on": "NCI-H322M", "in_short": "as §1"}}}
{"smiles": "Clc1ccc(Nc2nnc(Cc3ccncc3)c3ccccc23)cc1", "note": "[Vatalanib] + Nc1ncn([C@H]2C[C@H](O)[C@@H](CO)O2)c(=O)n1 [Decitabine] (partner 2 µM)", "values": [{"measurement": "relative viability", "setting": "[1]; first compound 0.04 µM", "result": 0.393}, {"measurement": "relative viability", "setting": "[1]; first compound 0.1265 µM", "result": 0.328}, {"measurement": "relative viability", "setting": "[1]; first compound 0.4 µM", "result": 0.343}, {"measurement": "relative viability", "setting": "[1]; first compound 1.265 µM", "result": 0.33}, {"measurement": "relative viability", "setting": "[1]; first compound 4 µM", "result": 0.356}, {"measurement": "relative viability", "setting": "[2]; first compound 0.04 µM", "result": 0.737}, {"measurement": "relative viability", "setting": "[2]; first compound 0.1265 µM", "result": 0.739}, {"measurement": "relative viability", "setting": "[2]; first compound 0.4 µM", "result": 0.866}, {"measurement": "relative viability", "setting": "[2]; first compound 1.265 µM", "result": 0.599}, {"measurement": "relative viability", "setting": "[2]; first compound 4 µM", "result": 0.665}, {"measurement": "relative viability", "setting": "[3]; first compound 0.04 µM", "result": 0.541}, {"measurement": "relative viability", "setting": "[3]; first compound 0.1265 µM", "result": 0.482}, {"measurement": "relative viability", "setting": "[3]; first compound 0.4 µM", "result": 0.39}, {"measurement": "relative viability", "setting": "[3]; first compound 1.265 µM", "result": 0.455}, {"measurement": "relative viability", "setting": "[3]; first compound 4 µM", "result": 0.493}, {"measurement": "relative viability", "setting": "[4]; first compound 0.04 µM", "result": 0.607}, {"measurement": "relative viability", "setting": "[4]; first compound 0.1265 µM", "result": 0.689}, {"measurement": "relative viability", "setting": "[4]; first compound 0.4 µM", "result": 0.716}, {"measurement": "relative viability", "setting": "[4]; first compound 1.265 µM", "result": 0.627}, {"measurement": "relative viability", "setting": "[4]; first compound 4 µM", "result": 0.665}, {"measurement": "relative viability", "setting": "[5]; first compound 0.04 µM", "result": 0.503}, {"measurement": "relative viability", "setting": "[5]; first compound 0.1265 µM", "result": 0.414}, {"measurement": "relative viability", "setting": "[5]; first compound 0.4 µM", "result": 0.565}, {"measurement": "relative viability", "setting": "[5]; first compound 1.265 µM", "result": 0.441}, {"measurement": "relative viability", "setting": "[5]; first compound 4 µM", "result": 0.404}, {"measurement": "relative viability", "setting": "[6]; first compound 0.04 µM", "result": 0.242}, {"measurement": "relative viability", "setting": "[6]; first compound 0.1265 µM", "result": 0.25}, {"measurement": "relative viability", "setting": "[6]; first compound 0.4 µM", "result": 0.297}, {"measurement": "relative viability", "setting": "[6]; first compound 1.265 µM", "result": 0.266}, {"measurement": "relative viability", "setting": "[6]; first compound 4 µM", "result": 0.319}, {"measurement": "relative viability", "setting": "[7]; first compound 0.04 µM", "result": 0.584}, {"measurement": "relative viability", "setting": "[7]; first compound 0.1265 µM", "result": 0.512}, {"measurement": "relative viability", "setting": "[7]; first compound 0.4 µM", "result": 0.544}, {"measurement": "relative viability", "setting": "[7]; first compound 1.265 µM", "result": 0.597}, {"measurement": "relative viability", "setting": "[7]; first compound 4 µM", "result": 0.524}, {"measurement": "relative viability", "setting": "[8]; first compound 0.04 µM", "result": 0.28}, {"measurement": "relative viability", "setting": "[8]; first compound 0.1265 µM", "result": 0.308}, {"measurement": "relative viability", "setting": "[8]; first compound 1.265 µM", "result": 0.266}, {"measurement": "relative viability", "setting": "[8]; first compound 4 µM", "result": 0.343}, {"measurement": "relative viability", "setting": "[9]; first compound 0.04 µM", "result": 1.02}, {"measurement": "relative viability", "setting": "[9]; first compound 0.1265 µM", "result": 0.79}, {"measurement": "relative viability", "setting": "[9]; first compound 0.4 µM", "result": 1.17}, {"measurement": "relative viability", "setting": "[9]; first compound 4 µM", "result": 1.22}, {"measurement": "relative viability", "setting": "[10]; first compound 0.04 µM", "result": 0.358}, {"measurement": "relative viability", "setting": "[10]; first compound 0.1265 µM", "result": 0.342}, {"measurement": "relative viability", "setting": "[10]; first compound 0.4 µM", "result": 0.415}, {"measurement": "relative viability", "setting": "[10]; first compound 1.265 µM", "result": 0.287}, {"measurement": "relative viability", "setting": "[10]; first compound 4 µM", "result": 0.353}, {"measurement": "relative viability", "setting": "[11]; first compound 0.04 µM", "result": 0.725}, {"measurement": "relative viability", "setting": "[11]; first compound 0.1265 µM", "result": 0.744}, {"measurement": "relative viability", "setting": "[11]; first compound 0.4 µM", "result": 0.866}, {"measurement": "relative viability", "setting": "[11]; first compound 4 µM", "result": 0.732}, {"measurement": "relative viability", "setting": "[12]; first compound 0.04 µM", "result": 0.518}, {"measurement": "relative viability", "setting": "[12]; first compound 0.1265 µM", "result": 0.59}, {"measurement": "relative viability", "setting": "[12]; first compound 0.4 µM", "result": 0.495}, {"measurement": "relative viability", "setting": "[12]; first compound 1.265 µM", "result": 0.565}, {"measurement": "relative viability", "setting": "[12]; first compound 4 µM", "result": 0.668}, {"measurement": "relative viability", "setting": "[13]; first compound 0.04 µM", "result": 0.504}, {"measurement": "relative viability", "setting": "[13]; first compound 0.1265 µM", "result": 0.446}, {"measurement": "relative viability", "setting": "[13]; first compound 0.4 µM", "result": 0.581}, {"measurement": "relative viability", "setting": "[13]; first compound 1.265 µM", "result": 0.456}, {"measurement": "relative viability", "setting": "[13]; first compound 4 µM", "result": 0.529}, {"measurement": "relative viability", "setting": "[14]; first compound 0.04 µM", "result": 0.526}, {"measurement": "relative viability", "setting": "[14]; first compound 0.1265 µM", "result": 0.616}, {"measurement": "relative viability", "setting": "[14]; first compound 0.4 µM", "result": 0.515}, {"measurement": "relative viability", "setting": "[14]; first compound 1.265 µM", "result": 0.613}, {"measurement": "relative viability", "setting": "[14]; first compound 4 µM", "result": 0.551}, {"measurement": "relative viability", "setting": "[15]; first compound 0.04 µM", "result": 0.843}, {"measurement": "relative viability", "setting": "[15]; first compound 0.1265 µM", "result": 0.81}, {"measurement": "relative viability", "setting": "[15]; first compound 0.4 µM", "result": 0.663}, {"measurement": "relative viability", "setting": "[15]; first compound 1.265 µM", "result": 0.857}, {"measurement": "relative viability", "setting": "[15]; first compound 4 µM", "result": 0.777}, {"measurement": "relative viability", "setting": "[16]; first compound 0.04 µM", "result": 0.361}, {"measurement": "relative viability", "setting": "[16]; first compound 0.1265 µM", "result": 0.414}, {"measurement": "relative viability", "setting": "[16]; first compound 0.4 µM", "result": 0.388}, {"measurement": "relative viability", "setting": "[16]; first compound 1.265 µM", "result": 0.373}, {"measurement": "relative viability", "setting": "[16]; first compound 4 µM", "result": 0.424}, {"measurement": "relative viability", "setting": "[17]; first compound 0.04 µM", "result": 0.231}, {"measurement": "relative viability", "setting": "[17]; first compound 0.1265 µM", "result": 0.213}, {"measurement": "relative viability", "setting": "[17]; first compound 0.4 µM", "result": 0.219}, {"measurement": "relative viability", "setting": "[17]; first compound 1.265 µM", "result": 0.174}, {"measurement": "relative viability", "setting": "[17]; first compound 4 µM", "result": 0.253}, {"measurement": "relative viability", "setting": "[18]; first compound 0.04 µM", "result": 0.41}, {"measurement": "relative viability", "setting": "[18]; first compound 0.1265 µM", "result": 0.346}, {"measurement": "relative viability", "setting": "[18]; first compound 0.4 µM", "result": 0.308}, {"measurement": "relative viability", "setting": "[18]; first compound 1.265 µM", "result": 0.338}, {"measurement": "relative viability", "setting": "[18]; first compound 4 µM", "result": 0.296}, {"measurement": "relative viability", "setting": "[19]; first compound 0.04 µM", "result": 0.53}, {"measurement": "relative viability", "setting": "[19]; first compound 0.1265 µM", "result": 0.523}, {"measurement": "relative viability", "setting": "[19]; first compound 0.4 µM", "result": 0.573}, {"measurement": "relative viability", "setting": "[19]; first compound 1.265 µM", "result": 0.587}, {"measurement": "relative viability", "setting": "[19]; first compound 4 µM", "result": 0.608}, {"measurement": "relative viability", "setting": "[20]; first compound 0.04 µM", "result": 0.575}, {"measurement": "relative viability", "setting": "[20]; first compound 0.1265 µM", "result": 0.51}, {"measurement": "relative viability", "setting": "[20]; first compound 0.4 µM", "result": 0.592}, {"measurement": "relative viability", "setting": "[20]; first compound 1.265 µM", "result": 0.477}, {"measurement": "relative viability", "setting": "[20]; first compound 4 µM", "result": 0.518}, {"measurement": "relative viability", "setting": "[21]; first compound 0.04 µM", "result": 0.769}, {"measurement": "relative viability", "setting": "[21]; first compound 0.1265 µM", "result": 0.687}, {"measurement": "relative viability", "setting": "[21]; first compound 0.4 µM", "result": 0.786}, {"measurement": "relative viability", "setting": "[21]; first compound 4 µM", "result": 0.663}]}
